# Data published in publication PMC8690933, “Evans blue-modified radiolabeled fibroblast activation protein inhibitor as long-acting cancer therapeutics” (Theranostics, 2022).
# “Also recorded” adds a separate entry of the source.
# Experiments:
# [1] = molecular target: T1, FAP (Homo sapiens, UniProt Q12884); experiment: Competition assay against ^68Ga-FAPI-02 in U87MG cells; conditions: unlabeled ligand competing with ^68Ga-FAPI-02, 1 h, read-out: IC50 (binding affinity to FAP in vitro)
# T1 construct: endogenous in cells; host or cells: U87MG cells
# T1 sequence (Q12884 1-760): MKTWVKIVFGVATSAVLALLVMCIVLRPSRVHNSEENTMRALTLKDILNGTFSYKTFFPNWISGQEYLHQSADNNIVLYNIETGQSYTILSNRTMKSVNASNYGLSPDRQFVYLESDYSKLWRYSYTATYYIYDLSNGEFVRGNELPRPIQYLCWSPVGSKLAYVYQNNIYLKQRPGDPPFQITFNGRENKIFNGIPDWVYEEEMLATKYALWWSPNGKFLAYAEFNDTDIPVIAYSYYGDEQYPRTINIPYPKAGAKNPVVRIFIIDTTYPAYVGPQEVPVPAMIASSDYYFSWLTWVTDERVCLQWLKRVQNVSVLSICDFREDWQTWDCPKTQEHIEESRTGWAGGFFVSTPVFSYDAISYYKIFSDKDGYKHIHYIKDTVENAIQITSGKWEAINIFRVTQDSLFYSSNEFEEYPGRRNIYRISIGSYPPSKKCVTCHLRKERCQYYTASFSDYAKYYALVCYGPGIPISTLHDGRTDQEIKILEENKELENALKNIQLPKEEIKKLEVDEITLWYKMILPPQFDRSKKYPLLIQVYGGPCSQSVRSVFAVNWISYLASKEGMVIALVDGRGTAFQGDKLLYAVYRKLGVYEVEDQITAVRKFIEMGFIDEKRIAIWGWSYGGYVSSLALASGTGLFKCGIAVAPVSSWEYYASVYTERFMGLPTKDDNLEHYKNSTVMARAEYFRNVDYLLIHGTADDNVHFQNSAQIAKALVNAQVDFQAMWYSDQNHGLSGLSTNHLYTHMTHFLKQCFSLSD
# Description: (§1) U87MG cells were cultivated in Dulbecco modified Eagle medium (DMEM) containing 10% fetal calf serum (FCS) at 37 ℃ in 5% carbon dioxide (CO2). For cell uptake experiment, U87MG cells were seeded in 24-well plates (2 × 10^5/well) overnight. The cells were incubated with 37 kBq of ^177Lu-EB-FAPI series compounds in 0.5 mL of medium for 0.5, 1, 2, 4, 8 and 24 h at 37 °C. In the blocking group, FAPI-02 (10 μg/well) were added as inhibitors of the labeled precursors. For competition assays, U87MG cells were incubated simultaneously with different concentrations (10^-5-10^-11 M) of unlabeled FAPI-02 or EB-FAPI-B1 and ^68Ga-FAPI-02 in 0.4 mL of fresh medium for 1 h. At the corresponding time points, the medium was removed and the cells were washed twice with cold PBS (pH 7.4) and subsequently lysed with 1 mL of NaOH (0.1 M). Cell lysates was collected and the radioactivity was determined using a γ-counter. The cell uptake experiment was repeated four times for each time point and the competition assays were repeated three times at different concentrations.
# [2] = test system: U87MG tumor; experiment: Small animal PET imaging in U87MG tumor-bearing mice; assay type: in vivo; conditions: 1 h p.i.
# Description: All animal studies were approved by the Animal Care and Use Committee of Xiamen University and carried out in compliance with the national laws related to the conduct of animal experimentation. 6-week-old female BALB/c nude mice from Beijing Vital River Laboratory Animal Technology Co., Ltd. were used in this study. The right upper limbs of BALB/c nude mice were subcutaneously inoculated with the suspension of U87MG cells (5 × 10^6 cells in 100 μL of PBS). […] PET scans were performed by using Inveon small-animal PET scanner (Siemens Preclinical Solution). […] At 1 h p.i., the mice were anaesthetized and placed on the bed for PET imaging. […] PET images were reconstructed with attenuation correction and analyzed through drawing regions of interest (ROIs).
# [3] = In vitro stability in PBS and saline (radio-HPLC/TLC); assay type: physicochemical
# [4] = test system: U87MG tumor; experiment: Small animal SPECT/CT imaging in U87MG tumor-bearing mice; assay type: in vivo, BALB/c nude mice
# Description: (§2) All animal studies were approved by the Animal Care and Use Committee of Xiamen University and carried out in compliance with the national laws related to the conduct of animal experimentation. 6-week-old female BALB/c nude mice from Beijing Vital River Laboratory Animal Technology Co., Ltd. were used in this study. The right upper limbs of BALB/c nude mice were subcutaneously inoculated with the suspension of U87MG cells (5 × 10^6 cells in 100 μL of PBS). The mice underwent radioligand therapy experiments when the tumor volume reached about 100 mm^3 and small animal SPECT imaging studies when the tumor volume reached about 500 mm^3.
# SPECT/CT imaging studies were performed using a nanoSPECT/CT preclinical scanner (Mediso, Hungary). About 37 MBq of radiotracers were injected intravenously into female ICR mice and U87MG tumor-bearing mice, whole body SPECT images were acquired at 1, 4, 24, 48, 72 and 96 h p.i. The acquisition parameters were as follows: 56.1, 112.9 and 208.4 keV energy peaks for ^177Lu, window width of 20%, matrix of 256 × 256, medium zoom, and 48 frames. Mice were anaesthetized using 1.5% isoflurane to maintain spontaneous breathing during imaging.
# [5] = test system: U87MG tumor; experiment: Biodistribution in U87MG tumor-bearing mice at 96 h p.i.; parameters: species or system BALB/c nude mice; conditions: ex vivo counting
# Description: as §2
# (§3) In biodistribution study of normal mice, healthy ICR mice (18-20 g) were randomly divided into 6 groups (n = 4/group), injected with radiotracers (740 kBq in 0.1 mL saline) and sacrificed at 0.25, 1, 4, 8, 24 and 48 h p.i. Tissues and organs of interest were collected, wet weighed, and counted by a γ-counter. In addition, BALB/c nude mice bearing U87MG tumors were injected with radiotracers for SPECT imaging, and then, sacrificed at 96 h p.i., the major organs and tumors were collected and weighed. Radioactivity was detected using a γ-counter, and the results were calculated as percentage of injected dose per gram (%ID/g).
# [6] = Biodistribution in healthy ICR mice; assay type: in vivo
# Description: as §3
# [7] = Octanol/water partition coefficient; assay type: physicochemical
# Description: A detailed scheme of chemical synthesis protocol is elaborated in the supplementary materials. To radiolabel the precursor with ^177Lu, 185-740 MBq of ^177LuCl3 was firstly diluted with 0.2 mL of 0.5 M NH4OAc (pH = 5.5) before incubating with EB-FAPI-Bn (50 μg dissolved in 10 μL dimethyl sulfoxide). The mixture was heated and thoroughly mixed for 30 min at 95 °C. Radiolabeling efficiency and radiochemical purity were tested using thin-layer chromatography (TLC) and high-performance liquid chromatography (HPLC). Radiolabeling of ^68Ga was performed by incubating with 50 μg precursor (pH = 4.5-5.0) at 95 ℃ for 10 min. The ^68Ga-labeled product was purified by C18 column extraction and the radiochemical purity was determined by HPLC. Stability of ^177Lu-EB-FAPI-B1, ^177Lu-EB-FAPI-B2, ^177Lu-EB-FAPI-B3 and ^177Lu-EB-FAPI-B4 (See Figure 1 for the structures) in PBS and saline were monitored up to 24 h using radio-HPLC. More information about radiochemistry, quality control and octanol/water partition coefficient can be found in supplemental information.
# [8] = test system: U87MG cells; experiment: Cell uptake and blocking assay; assay type: cell-based
# Description: as §1
# [9] = Safety evaluation in the therapy study (body weight, H&E staining of major organs); assay type: in vivo, BALB/c nude mice
# Description: (§4) Two weeks after inoculation of U87MG tumor cells, the average tumor volume reached about 100 mm^3 in BALB/c nude mice. The U87MG tumor-bearing mice were randomly divided into 4 groups (n = 8/group), and subsequently treated with saline, 30 MBq ^177Lu-EB-FAPI-B1, 18.5 MBq ^177Lu-EB-FAPI-B1, 7.4 MBq ^177Lu-EB-FAPI-B1, respectively. Tumor volumes and body weights of all mice were monitored every two days. Individual tumor size was calculated with the formula: length × width^2/2. The mice were euthanized when the tumor volume exceeded 1500 mm^3. Histopathologic staining was performed with an anti-human FAP mAb (ab207178, Abcam). Hematoxylin and eosin (H&E) staining and terminal deoxynucleotidyl transferase-mediated dUTP-biotin nick-end labeling (TUNEL) analysis were carried out using a commercially available kit (Beyotime).
# [10] = test system: U87MG tumor; experiment: Radioligand therapy study and tumor histopathology in U87MG tumor-bearing mice; assay type: in vivo, BALB/c nude mice
# Description: as §2, §4
# [11] = SPECT, value given with the increase from 24 h to 96 h p.i.
compound,measurement,setting,value
N#C[C@@H]1CCCN1C(=O)CNC(=O)c1ccnc2ccc(OCCCN3CCN(C(=O)CN4CCN(CC(=O)O)CCN(CC(=O)O)CCN(CC(=O)O)CC4)CC3)cc12 [FAPI-02],IC50,[1],10.9 nM
Cc1cc(-c2ccc(NC(=O)C(CCCCNC(=O)CCC(=O)N3CCN(CCCOc4ccc5nccc(C(=O)NCC(=O)N6CCC[C@H]6C#N)c5c4)CC3)NC(=O)CN3CCN(CC(=O)[O-])CCN(CC(=O)[O-])CCN(CC(=O)[O-])CC3)c(C)c2)ccc1N=Nc1ccc2c(S(=O)(=O)O)cc(S(=O)(=O)O)c(N)c2c1O.[68Ga+3] (some centres unmarked) [^68Ga-EB-FAPI-B1],T/M ratio compared with ^68Ga-FAPI-02,[2],higher T/M ratio
same,tumor uptake value,[2],3.5 ± 0.22 %ID/g
"N#C[C@@H]1CCCN1C(=O)CNC(=O)c1ccnc2ccc(OCCCN3CCN(C(=O)CN4CCN(CC(=O)[O-])CCN(CC(=O)[O-])CCN(CC(=O)[O-])CC4)CC3)cc12.[68Ga+3] [^68Ga-FAPI-02, reference compound]",tumor uptake value,[2],0.85 ± 0.21 %ID/g
same,tumor uptake in the presence of the blocking agent EB-FAPI-B1,[2]; unlabeled EB-FAPI-B1 as competitor,decreased more than half
Cc1cc(-c2ccc(NC(=O)C(CCCCNC(=O)CCC(=O)N3CCN(CCCOc4ccc5nccc(C(=O)NCC(=O)N6CCC[C@H]6C#N)c5c4)CC3)NC(=O)CN3CCN(CC(=O)[O-])CCN(CC(=O)[O-])CCN(CC(=O)[O-])CC3)c(C)c2)ccc1N=Nc1ccc2c(S(=O)(=O)O)cc(S(=O)(=O)O)c(N)c2c1O.[177Lu+3] (some centres unmarked) [^177Lu-EB-FAPI-B1],time stable in PBS (pH 7.4) and saline,[3]; PBS (pH 7.4) and saline,at least 24 h
same,radiochemistry purity after incubation,"[3]; PBS and saline, at 24 h and 48 h",over 95%
same,tumor uptake on SPECT images,[4]; 4 h p.i.,obvious tumor uptake was observed
same,tumor-to-muscle ratio (T/M),"[4]; SPECT, 24 h p.i.",12.29 ± 0.85
same,"tumor-to-muscle ratio (T/M), peak","[4]; SPECT, 72 h p.i.",18.67 ± 3.75
same,tumor-to-muscle ratio (T/M),"[4]; SPECT, 96 h p.i.",14.15 ± 0.13
same,tumor-to-heart ratio (T/H),[4]; [11],14.28 ± 2.46
same,tumor-to-kidney ratio (T/K),[4]; [11],2.35 ± 0.61
same,tumor-to-liver ratio (T/L),[4]; [11],3.73 ± 1.21
same,tumor uptake,[5],12.42 ± 1.54 %ID/g
same,blood uptake,[6]; 4 h p.i.,21.93 ± 2.13 %ID/g
same,kidney uptake (highest value),[6]; 8 h p.i.,16.38 ± 2.98 %ID/g
same,kidney uptake,[6]; 48 h p.i.,8.13 ± 1.36 %ID/g
same,Octanol/water partition coefficient (Log P),[7],-1.90 ± 0.12
same,cellular uptake with blocking by unlabeled inhibitor,[8]; blocking group,2.25 ± 0.14%
same,highest cellular uptake,[8]; incubation for 24 h,9.97 ± 0.42%
same,body weight change,"[9]; all treatment groups (30, 18.5, 7.4 MBq)",slight body weight loss
same,H&E staining of major organs (safety evaluation),"[9]; heart, liver, spleen, lung, kidneys after treatment",negligible side effect; also recorded: no distinct tissue damage
same,TUNEL staining of excised tumor,[10]; 18.5 MBq group versus saline group,remarkably more cell apoptosis
same,relative tumor size,"[10]; single dose of 30, 18.5 or 7.4 MBq (all three doses), day 0 to day 22",no more than 5
same,tumor growth compared to the saline group,"[10]; single dose of 30 MBq, 18.5 MBq or 7.4 MBq",noteworthy tumor growth inhibitions; also recorded: noteworthy tumor growth delay
same,H&E staining of excised tumor,[10]; treatment groups versus saline group,large necrotic areas
"N#C[C@@H]1CCCN1C(=O)CNC(=O)c1ccnc2ccc(OCCCN3CCN(C(=O)CN4CCN(CC(=O)[O-])CCN(CC(=O)[O-])CCN(CC(=O)[O-])CC4)CC3)cc12.[177Lu+3] [^177Lu-FAPI-02, reference compound]",blood accumulation relative to ^177Lu-EB-FAPI-B1,[6]; 4 h p.i.,about 1%
same,blood uptake,[6]; 4 h p.i.,0.23 ± 0.06 %ID/g
